In patent US8309550B2, “Kinase inhibitors and their use as pharmaceutical agents” (Shanghai Genomics, Inc., priority 2011, dated 2012):
Read-outs that look alike come from different tables or passages of the source.

Legend:
Jurkat = experiment: 72 h MTT cell viability Jurkat; assay type: cell-based; conditions: Homo sapiens
Text: (§1) MIT cytotoxicity assay. The compounds of the invention were subjected to a standard cellular proliferation assay using human cell lines. HeLa cells (Human cervix adenocarcinoma cell line, ATCC NO, CCL-2); A549 cells (Human lung carcinoma cells line, ATCC NO, CCL-185); U2OS cells (Human osteosarcoma cell line, ATCC NO, HTB-96); Eca-109 cells (Human esophageal carcinoma cell line); HepG2 (Human hepatocellular liver carcinoma cell line, ATCC NO, HB-8065); K562 cells (Human chronic myelogenous leukemia cell line, ATCC NO, CCL-243); SK-MEL-28 (Human malignant melanoma cell line, ATCC NO, HTB-72); Molt-4 (Human acute lymphoblastic leukemia cell line, ATCC NO, CRL-1582); H460 (Human large cell lung cancer cell line, ATCC NO, HTB-177); MDA-MB-231 (Human breast adenocarcinoma cell line, ATCC NO, HTB-26); MCF7 (Human breast adenocarcinoma cell line, ATCC NO, HTB-22); ACHN (Human renal cell adenocarcinoma cell line, ATCC NO, CRL-1611); PC-3M (Human prostate adenocarcinoma cell line, ATCC NO CRL-1435); HL60 (Human acute promyelocytic leukemia cell line, ATCC NO, CCL-240); THP-1 (Human acute monocytic leukemia, ATCC NO, TIB-202); Jurkat (Human acute T cell leukemia cell line, ATCC NO, CRL-2063); HCT-116 (Human colorectal carcinoma cell line, ATCC NO, CCL-247); HT-29 (Human colorectal adenocarcinoma cell line, ATCC NO, HTB-38™); WI-38 (Human normal lung cell line, ATCC NO, CCL-75); MRC-5 (Human normal lung cell line, ATCC NO, CCL-171).
(§2) HepG2, MDA-MB-231, WI-38 and MRC-5 cells were obtained from Shanghai Institute of Cell Biology, Chinese Academy of Sciences (Shanghai 200031, China). A549, HeLa, K562, MCF7, ACHN, H460, U2OS, Eca-109, MCF7, HL60, THP-1, Jurkat, HCT-116, HT-29, PC-3M, SK-MEL-28, Molt-4, H460 and […] cells were purchased from ATCC (American Type Culture Collection, USA).
(§3) Standard 72 h MTT (thiazolye blue; 3-[4,5-dimethylthiazol-2-yl]-2,5-diphenyltetrazolium bromide) assays were performed. Briefly, the cell lines used in this study were recovered and cultured according to the conditions recommended. 4000 cells per well were seeded into 96-well plates according to doubling time and incubated overnight at 37° C. Compounds were prepared in DMSO and a ½ dilution series in 100 μl cell culture media, added to cells (in duplicates) with the final DMSO concentration of 0.025%, and incubated for 72 hrs at 37° C. MTT solution (5 mg/ml) was added at 10 μl per well and incubated in the dark at 37° C. for 4 hr. Culture medium and MTT solution was removed. MTT dye was solubilised with 100 μl per well of DMSO with agitation. Absorbance was read at 562 nm and data analyzed using Sigmoid curve-fitting software Origin 6.0 (MicroCal, LLC, USA) to determine IC50 value.

THP-1 = experiment: 72 h MTT cell viability THP-1; assay type: cell-based; conditions: Homo sapiens
Text: as §1, §2, §3

HT-29 = experiment: 72 h MTT cell viability HT-29; assay type: cell-based; conditions: Homo sapiens
Text: as §1, §2, §3

HCT 116 = experiment: 72 h MTT cell viability HCT 116; assay type: cell-based; conditions: Homo sapiens
Text: as §1, §2, §3

Eca-109 cells = experiment: 72 h MTT cytotoxicity assay Eca-109; assay type: cell-based; conditions: Homo sapiens; Eca-109, 72 hrs
Text: as §1, §2, §3

CDK9T1 = CDK9T1 (Homo sapiens, UniProt P50750); experiment: Kinase assay CDK9T1 (Table I); assay type: biochemical; conditions: read-out: Kinase inhibition, IC50 CDK9T1
SK-MEL-28-luc = experiment: 72 h MTT cytotoxicity assay SK-MEL-28-luc; assay type: cell-based; conditions: Homo sapiens
Text: as §1, §2, §3

Molt-4-luc = experiment: 72 h MTT cytotoxicity assay Molt-4-luc; assay type: cell-based; conditions: Homo sapiens
Text: as §1, §2, §3

A549 cells = experiment: 72 h MTT cytotoxicity assay A549; assay type: cell-based; conditions: Homo sapiens; A549, 72 hrs
Text: as §1, §2, §3

MDA-MB-231-luc = experiment: 72 h MTT cell viability MDA-MB-231-luc; assay type: cell-based; conditions: Homo sapiens
Text: as §1, §2, §3

MCF7 = experiment: 72 h MTT cytotoxicity assay MCF7; assay type: cell-based; conditions: Homo sapiens; MCF7, 72 hrs
Text: as §1, §2, §3

HeLa cells = experiment: 72 h MTT cytotoxicity assay HeLa; assay type: cell-based; conditions: Homo sapiens
Text: as §1, §2, §3

U2OS cells = experiment: 72 h MTT cytotoxicity assay U2OS; assay type: cell-based; conditions: Homo sapiens
Text: as §1, §2, §3

K562 cells = experiment: 72 h MTT cytotoxicity assay K562; assay type: cell-based; conditions: Homo sapiens; K562, 72 hrs
Text: as §1, §2, §3

MRC-5 = experiment: 72 h MTT cell viability MRC-5 (normal lung); assay type: cell-based; conditions: Homo sapiens, MRC5
Text: as §1, §2, §3

[1] = Table III, read-out: Cellular effect in mammalian cells IC50 Jurkat
[2] = THP-1, Table III, read-out: Cellular effect in mammalian cells IC50 THP-1
[3] = HT29, Table III, read-out: Cellular effect in mammalian cells IC50 HT29
[4] = HCT116, Table III, read-out: Cellular effect in mammalian cells IC50 HCT116
[5] = read-out: Cell Viability IC50 Jurkat
[6] = THP-1, read-out: Cell Viability IC50 THP-1
[7] = MRC-5, normal lung cell line, read-out: Cell Viability IC50 MRC-5
[8] = MRC-5, Table III, read-out: Cellular effect in mammalian cells IC50 MRC-5
[9] = read-out: Cell Viability IC50 HT-29
[10] = read-out: Cell Viability IC50 HCT 116

Sequence of CDK9T1 (P50750 whole entry): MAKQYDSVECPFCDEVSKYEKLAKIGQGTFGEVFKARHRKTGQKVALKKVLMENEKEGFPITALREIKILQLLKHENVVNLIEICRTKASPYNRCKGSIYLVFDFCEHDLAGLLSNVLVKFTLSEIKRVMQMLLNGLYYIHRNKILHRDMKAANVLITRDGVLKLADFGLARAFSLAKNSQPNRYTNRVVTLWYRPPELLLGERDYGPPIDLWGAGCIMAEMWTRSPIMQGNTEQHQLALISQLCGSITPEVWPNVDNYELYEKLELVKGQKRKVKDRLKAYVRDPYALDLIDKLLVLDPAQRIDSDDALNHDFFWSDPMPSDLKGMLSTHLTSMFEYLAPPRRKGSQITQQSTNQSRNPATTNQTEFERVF
Sequence of CDK9T1 (O60563 whole entry partner): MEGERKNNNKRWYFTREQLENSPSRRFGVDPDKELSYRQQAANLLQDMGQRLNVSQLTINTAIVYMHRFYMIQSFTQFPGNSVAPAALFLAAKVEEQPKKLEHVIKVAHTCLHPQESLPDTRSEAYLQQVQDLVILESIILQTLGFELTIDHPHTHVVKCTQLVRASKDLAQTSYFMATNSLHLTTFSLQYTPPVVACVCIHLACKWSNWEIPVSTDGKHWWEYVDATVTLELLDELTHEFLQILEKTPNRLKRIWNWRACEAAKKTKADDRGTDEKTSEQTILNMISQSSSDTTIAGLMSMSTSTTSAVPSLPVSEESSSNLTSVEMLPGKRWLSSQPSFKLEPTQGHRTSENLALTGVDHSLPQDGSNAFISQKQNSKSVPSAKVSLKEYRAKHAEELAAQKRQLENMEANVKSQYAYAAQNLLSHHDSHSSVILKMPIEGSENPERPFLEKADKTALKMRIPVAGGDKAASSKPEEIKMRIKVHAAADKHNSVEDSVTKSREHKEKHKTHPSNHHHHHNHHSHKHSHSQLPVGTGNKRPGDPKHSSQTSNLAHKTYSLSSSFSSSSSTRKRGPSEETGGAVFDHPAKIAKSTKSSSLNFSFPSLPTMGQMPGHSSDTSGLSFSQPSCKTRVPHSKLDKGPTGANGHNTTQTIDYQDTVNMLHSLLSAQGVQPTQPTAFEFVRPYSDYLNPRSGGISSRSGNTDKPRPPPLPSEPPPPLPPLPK

SMILES | IC50 (Jurkat; [1]) | IC50 (THP-1; [2]) | IC50 (HT-29; [3]) | IC50 (HCT 116; [4]) | IC50 (Eca-109 cells) | IC50 (Jurkat; [5]) | IC50 (CDK9T1) | IC50 (SK-MEL-28-luc) | IC50 (Molt-4-luc) | IC50 (THP-1; [6]) | IC50 (A549 cells) | IC50 (MDA-MB-231-luc) | IC50 (MCF7) | IC50 (HeLa cells) | IC50 (U2OS cells) | IC50 (K562 cells) | IC50 (MRC-5; [7]) | IC50 (MRC-5; [8]) | IC50 (HT-29; [9]) | IC50 (HCT 116; [10])
CCCn1cc(-c2ccnc(Nc3cccc(S(N)(=O)=O)c3)n2)c2nc(Cl)cc(C)c21 [SG53] | 360 nM | 1040 nM | – | – | – | – | – | – | – | – | – | – | – | – | – | – | – | – | – | –
CCCn1cc(-c2ccnc(Nc3cccc(S(N)(=O)=O)c3)n2)c2ccncc21 [SG51] | – | – | 20 nM | 4 nM | – | – | – | – | – | – | – | – | – | – | – | – | – | – | – | –
CCCn1cc(-c2ccnc(Nc3cccc(S(N)(=O)=O)c3)n2)c2ccncc21 [Compound 111, 3-(4-(1-Propyl-1H-pyrrolo[2,3-c]pyridin-3-yl)pyrimidin-2-ylamino)benzenesulfonamide] | – | – | – | – | 50 nM | 5.4 nM | 0.6 nM | 10 nM | 10 nM | 10 nM | 10 nM | 30 nM | 80 nM | 10 nM | 30 nM | 30 nM | 60 nM | – | – | –
CCCn1cc(-c2ccnc(Nc3ccc(C)c(S(=O)(=O)N4CCOCC4)c3)n2)c2ccncc21 [SG52] | 690 nM | 410 nM | 450 nM | 280 nM | – | – | – | – | – | – | – | – | – | – | – | – | – | 1630 nM | – | –
CCCn1cc(-c2ccnc(Nc3cccc(S(N)(=O)=O)c3)n2)c2nc(Cl)cc(C)c21 [Compound 42, 3-(4-(5-Chloro-7-methyl-1-propyl-1H-pyrrolo[3,2-b]pyridin-3-yl)pyrimidin-2-ylamino)benzenesulfonamide] | – | – | – | – | 10500 nM | – | 41 nM | 9450 nM | 4790 nM | – | 1730 nM | 1280 nM | > 10000 nM | 9930 nM | 1860 nM | > 10000 nM | 14600 nM | – | 200 nM | 3360 nM
CCCn1cc(-c2ccnc(Nc3ccc(S(N)(=O)=O)cc3)n2)c2ccncc21 [Compound 112, 4-(4-(1-Propyl-1H-pyrrolo[2,3-c]pyridin-3-yl)pyrimidin-2-ylamino)benzenesulfonamide] | – | – | – | – | 10 nM | 2.5 nM | 0.7 nM | 3.8 nM | 20 nM | 4 nM | 30 nM | – | 1.4 nM | 0.4 nM | 10 nM | 1.1 nM | > 10000 nM | – | 50 nM | 5 nM
CCCn1cc(-c2ccnc(Nc3ccc(S(N)(=O)=O)cc3)n2)c2nc(Cl)cc(C)c21 [SG54] | 1120 nM | 2950 nM | 150 nM | 3460 nM | – | – | – | – | – | – | – | – | – | – | – | – | – | 3970 nM | – | –
CCCn1cc(-c2ccnc(Nc3cccc(O)c3)n2)c2cccnc21 [Compound 16, 3-(4-(1-Propyl-1H-pyrrolo[2,3-b]pyridin-3-yl)pyrimidin-2-ylamino)phenol] | – | – | – | – | 12900 nM | – | 140 nM | 8510 nM | 3820 nM | – | 3330 nM | 5270 nM | 2170 nM | 14200 nM | 7420 nM | 7680 nM | – | – | – | –
CCCn1cc(-c2ccnc(Nc3ccc(C)c(S(=O)(=O)N4CCOCC4)c3)n2)c2cccnc21 [Compound 24, N-(4-Methyl-3-(morpholinosulfonyl)phenyl)-4-(1-propyl-1H-pyrrolo[2,3-b]pyridin-3-yl)pyrimidin-2-amine] | – | – | – | – | 5300 nM | 1790 nM | 1010 nM | 3050 nM | 4510 nM | 5250 nM | 3690 nM | – | 3480 nM | 1600 nM | 3300 nM | 3680 nM | 3880 nM | – | 1350 nM | 3430 nM
CCCn1cc(-c2ccnc(Nc3cccc(S(N)(=O)=O)c3)n2)c2cccnc21 [Compound 22, 3-(4-(1-Propyl-1H-pyrrolo[2,3-b]pyridin-3-yl)pyrimidin-2-ylamino)benzenesulfonamide] | – | – | – | – | 3400 nM | 1470 nM | 97 nM | 2720 nM | 2450 nM | 3260 nM | 2820 nM | – | 1130 nM | 1670 nM | 2130 nM | 1420 nM | 5170 nM | – | 1460 nM | 1890 nM
CCCn1cc(-c2ccnc(Nc3ccc(C)c(S(=O)(=O)N4CCOCC4)c3)n2)c2ccncc21 [Compound 102, N-(4-Methyl-3-(morpholinosulfonyl)phenyl)-4-(1-propyl-1H-pyrrolo[2,3-c]pyridin-3-yl)pyrimidin-2-amine] | – | – | – | – | 3520 nM | – | 0.4 nM | 990 nM | 230 nM | – | 570 nM | 750 nM | 1300 nM | 490 nM | 570 nM | 1440 nM | – | – | – | –
CCCn1cc(-c2ccnc(Nc3ccc(O)cc3)n2)c2cccnc21 [Compound 15, 4-(4-(1-Propyl-1H-pyrrolo[2,3-b]pyridin-3-yl)pyrimidin-2-ylamino)phenol] | – | – | – | – | 20000 nM | – | 1400 nM | 9430 nM | 2460 nM | – | 4980 nM | 5940 nM | 120 nM | 10400 nM | 7440 nM | 9810 nM | – | – | – | –
